Common to all, as to format: functional
Experiment [1] deals with Saccharomyces cerevisiae. Nature of the experiment: DNA damaging activity against RS 188N (RAD+) Saccharomyces cerevisiae.
The subject of experiment [2] is Saccharomyces cerevisiae. As to the kind of experiment: DNA damaging activity against RS 321N Saccharomyces cerevisiae.
In experiment [3] the test system is Saccharomyces cerevisiae. As to the kind of experiment: DNA damaging activity against DNA RS 322YK ([…]) Saccharomyces cerevisiae.

Active and inactive are the calls of the source. No cut-off for these calls is given here.

On to `CC(=O)CCCCCCCCCCCC[C@H]1CC[C@@H](O)[C@@H](CO)N1`, for which the outcome with Saccharomyces cerevisiae [1], with Saccharomyces cerevisiae [2] and in the experiment with Saccharomyces cerevisiae [3] was inactive.
For `CC(=O)CCCCCCCCCCCC[C@H]1CC[C@@H](O)[C@@H](C)N1`, the IC12 in the experiment with Saccharomyces cerevisiae [2] turned out to be 17 µg/mL.
On to `CC(=O)CCCCCCCCCCCC[C@@H]1CC[C@@H](O)[C@@H](C)N1`, for which the outcome in the experiment on Saccharomyces cerevisiae [1], with Saccharomyces cerevisiae [2] and with Saccharomyces cerevisiae [3] was inactive.
In the experiment on Saccharomyces cerevisiae [2], `CC(=O)CCCCCCCCCCCC[C@H]1CC[C@@H](OC(C)=O)[C@@H](C)N1` came in with an IC12 of 32 µg/mL.
Still for that read-out and setting: under `COC1=C(N)C(=O)c2nc(-c3nc(C(=O)O)c(C)c(-c4ccc(OC)c(OC)c4O)c3N)ccc2C1=O` [STREPTONIGRIN] stands 4 µg/mL.

The record behind these values is ChEMBL document CHEMBL1151220, “Further bioactive piperidine alkaloids from the flowers and green fruits of Cassia spectabilis” (2004).
